In patent US9597402B2, “Sustained release small molecule drug formulation” (DURECT CORPORATION, priority 2005, dated 2017):

Columns and labels:
[1] = Solubility in H2O; settings: pH 7.2
Source text: (§1) In one embodiment, a small molecule drug formulation includes a small molecule psychotherapeutic drug, such as a small molecule antipsychotic, dopamine receptor agonist, dopamine receptor antagonist, serotonin receptor agonist, serotonin receptor antagonist, and serotonin uptake inhibitor drug. […] R209130-base has the molecular formula C19H20FNO. R209130-mandelic acid salt (R209130) has the molecular formula C19H20FNO.C8H8O3. R209130-tartaric acid salt (R167154) has the molecular formula C19H20FNO.C4H6O6.

[2] = Solubility in benzyl benzoate (BB); settings: temperature not given
Source text: as §1

[3] = Solubility in benzyl alcohol (BA); settings: temperature not given
Source text: as §1

[4] = Solubility at pH 7; settings: cell states pH 7.2
Source text: as §1

[5] = Intrinsic dissolution rate; type: physicochemical
Source text: as §1

Row | SMILES | Solubility in H2O [1] | Solubility in BB [2] | Solubility in BA [3] | Solubility at pH 7 [4] | Intrinsic dissolution rate [5]
1 | Cc1nc2n(c(=O)c1CCN1CCC(c3noc4cc(F)ccc34)CC1)CCCC2 [Risperidone pamoate, Risperidone-pamoate] | 0.2 (pH 7.2) mg/ml | 50 µg/mL | 2970 µg/mL | 0.2 (pH 7.2) mg/ml | 
2 | Cc1nc2n(c(=O)c1CCN1CCC(c3noc4cc(F)ccc34)CC1)CCCC2 [Risperidone base, Risperidone] |  |  |  |  | 0.0025 mg/cm^2 · min
